The record followed here is PubChem BioAssay AID1996.

≈ marks a conversion by molar mass, not a printed value. Some results are limits rather than exact numbers.

The conditions of the series: buffer; pH 7.4; 200.0 µM.
Consider `NC(=O)c1ccc(NC(=O)COC(=O)C2COc3ccccc3O2)cc1` (centres undefined), for which the kinetic solubility was over 53.5 µg/mL. Take `O=C(Nc1ccc(F)cc1)Nc1cnccn1`: the kinetic solubility was determined as 27.9 µg/mL (≈ 120 µM). The compound `O=C(O)c1ccccc1C(=O)NCC(O)c1ccccc1` (centres undefined) yielded a kinetic solubility of over 42.8 µg/mL.

For `OCCN(CCO)CC(O)COc1ccc(Br)cc1` (centres undefined), the kinetic solubility worked out at 6.7 µg/mL (≈ 20 µM). `Cc1csc(NC(=O)c2ccc[nH]c2=O)n1` had a kinetic solubility of over 35.3 µg/mL. Regarding `Cc1[nH]c2ccccc2c1C(=O)COc1ccccc1F`, the solubility (kinetic) stood at 1.6 µg/mL (≈ 5.65 µM).

Take `CC(C(=O)NC1CCCCC1)N1C(=O)c2cccc3cccc1c23` (centres undefined): the kinetic solubility was 3.5 µg/mL (≈ 10.9 µM). As for `O=C(COC(=O)/C=C/c1ccc(C(F)(F)F)cc1)NCc1ccco1`, the solubility (kinetic) amounted to 35.7 µg/mL (≈ 101 µM). On to `Cc1c(Cl)cccc1NC(=O)C1COc2ccccc2O1` (centres undefined), for which the solubility (kinetic) turned out to be 30.6 µg/mL (≈ 101 µM).

As to `CCc1ccc(NC(=O)C2C3CCC(O3)C2C(=O)O)cc1` (centres undefined), the solubility (kinetic) stood at 39.3 µg/mL (≈ 136 µM). The solubility kinetic values of the last two compounds are within 1.5-fold of each other.

In the case of `Cc1ccc2nc(-c3ccncc3)cc(C(=O)N3CCOCC3)c2c1`, the kinetic solubility was over 50 µg/mL. To `O=C1CN(C(=S)Nc2ccc(OC(F)F)cc2)CCN1` belongs over 45.2 µg/mL; to `CC(C)c1c(O)nc(SCCOc2ccc(Cl)cc2)[nH]c1=O`, 44.7 µg/mL (≈ 131 µM). `COC(=O)C(C(=O)OC)c1ncccc1[N+](=O)[O-]` registered a kinetic solubility of over 38.1 µg/mL. The compound `COc1ccc(CNC(=O)/C=C/C(=O)O)cc1` gave a solubility (kinetic) of 35 µg/mL (≈ 149 µM). To `O=C(NCC1CCCO1)C1CCCN1C(=O)Nc1ccc(Cl)cc1` (centres undefined) belongs over 52.8 µg/mL; to `COc1cc2c(cc1OC)CC(C(=O)NCc1ccccc1)NC2` (centres undefined), 33.2 µg/mL (≈ 102 µM); to `C=CCc1cc(Cl)ccc1OCCn1ccnc1.O=C(O)C(=O)O`, 39.5 µg/mL. Compound `Cc1c([N+](=O)[O-])c([N+](=O)[O-])nn1CC(=O)N1CCOCC1` showed a solubility (kinetic) of over 44.9 µg/mL. Consider `COc1cccc(N2CCN(C(=O)/C=C/c3ccco3)CC2)c1`, for which the solubility (kinetic) was determined as 44.6 µg/mL (≈ 143 µM). `CC1CC(OCC(O)CN2CCCCC2C)CC(C)(C)C1.Cl` (centres undefined) came in with a kinetic solubility of over 50.1 µg/mL.

On to `Cc1ccc(C)c(OC(C)C(=O)Nc2nccs2)c1` (centres undefined), for which the kinetic solubility was 32.8 µg/mL (≈ 119 µM).

The compound `Cc1sc2ncnc(N3CCCC(C)C3)c2c1C.Cl` (centres undefined) displayed a solubility (kinetic) of 11 µg/mL. Compound `COc1cc(N(C)C)c([N+](=O)[O-])cc1C(=O)N1CCOCC1` yielded a kinetic solubility of over 46.4 µg/mL. Consider `COc1ccc(C(=O)NC(=S)N2CCC(C)CC2)cc1Br`, for which the kinetic solubility is 8 µg/mL (≈ 21.5 µM).

With `COc1ccc(OC)c(NC(=O)CSc2nc(O)cc(=O)n2CC(C)C)c1`, the kinetic solubility is over 59 µg/mL. Next, `COc1cc(OC)cc(C(=O)N[C@H](C(=O)NCc2ccco2)C(C)C)c1`: 45.3 µg/mL (≈ 126 µM); `O=C(Cc1c(F)cccc1Cl)OCC(=O)N1CCc2ccccc21`: 9.5 µg/mL (≈ 27.3 µM); `COc1ccc(CCNC(=O)c2coc3ccccc3c2=O)cc1`: 1.7 µg/mL (≈ 5.26 µM). The compound `COc1ccc(NC(=O)c2c(N)no[n+]2[O-])c(OC)c1` registered a kinetic solubility of 1.5 µg/mL (≈ 5.35 µM).

On to `OCC1(Cc2ccccc2)CCCN(Cc2c[nH]c3ccccc23)C1` (centres undefined), for which the solubility (kinetic) is 36 µg/mL (≈ 108 µM). The compound `COc1ccc2oc3c(c2c1)NC(=O)CN=C3c1ccccc1` showed a solubility (kinetic) of 3.1 µg/mL (≈ 10.1 µM). In the case of `CC1=C(C(=O)OCc2ccccc2)C(c2cccc(F)c2)NC(=O)N1` (centres undefined), the solubility (kinetic) was determined as 2.5 µg/mL (≈ 7.35 µM). Take `CCOC(=O)c1cc2c(=O)c3ccccc3oc2nc1C`: the kinetic solubility is 2.1 µg/mL (≈ 7.41 µM).

Consider `CCOC(=O)c1cc(C#N)c(N2CCNCC2)nc1C(F)(F)F`, for which the kinetic solubility was over 49.2 µg/mL. Next, `COc1ccc(CCC(C)NCC(C)c2ccccc2)cc1` (centres undefined): over 44.6 µg/mL; `CC1=CC(C)(C)N(C(=O)CN2C(=O)CCC2=O)c2ccccc21`: over 46.9 µg/mL. Turning to `CCN1C(=O)c2ccc(C(=O)Nc3ccc(O)cc3C)cc2C1=O`, the solubility (kinetic) was over 48.7 µg/mL. To `Cc1nc(C(F)(F)F)ccc1C(=O)NCC(O)c1ccccc1` (centres undefined) belongs over 48.6 µg/mL; to `Cc1ccc(C(O)c2nc3ccccc3n2C)cc1` (centres undefined), over 37.8 µg/mL; to `COc1cccc(NC(=O)COC(=O)c2sccc2C)c1`, 12.2 µg/mL (≈ 40 µM). Take `CCN1CCN(C(=S)NC(CC(=O)c2ccccc2)c2ccccc2)CC1` (centres undefined): the solubility (kinetic) was 49.8 µg/mL (≈ 131 µM). `Cc1cc(NC(=O)CSc2ccnc(=O)[nH]2)no1` showed a kinetic solubility of over 39.9 µg/mL. As to `CN1C(c2ccccc2)CC(=NO)CC1c1ccccc1` (centres undefined), the kinetic solubility was 1.4 µg/mL (≈ 4.99 µM).

Regarding `COc1ccc(Cl)cc1C(=O)O/N=C(\N)c1ccncc1`, the kinetic solubility was found to be 32.5 µg/mL (≈ 106 µM).

Regarding `O=C(Nc1ccccc1)Nc1ccc2ccccc2n1`, the kinetic solubility was under 0.2 µg/mL.

Consider `O=C(CCc1ccccc1)Nc1ccc2c(c1)C(=O)OC2`, for which the solubility (kinetic) came to 15.4 µg/mL (≈ 54.7 µM). On to `CN1CCN(NC(=O)CC(C)(C)C)CC1`, for which the kinetic solubility was over 32 µg/mL. Take `CCC(C)(CC(=O)Nc1nccs1)c1ccccc1` (centres undefined): the kinetic solubility was over 41.2 µg/mL.

`Cc1nc(C)c(Oc2ccc(Cl)cc2Cl)c(=O)[nH]1` displayed a solubility (kinetic) of 6.9 µg/mL (≈ 24.2 µM). As to `COC(=O)C(CC(C)C)NC(=O)c1cccs1` (centres undefined), the solubility (kinetic) is over 38.3 µg/mL. Next, `CC1Oc2ccccc2N(CC(=O)Nc2ccccc2F)C1=O` (centres undefined): 1.2 µg/mL (≈ 3.82 µM); `Nc1cccnc1Sc1ccccc1`: 28 µg/mL (≈ 138 µM). For `C[N+](C)(C)CC#CCOC(=O)Nc1cccc(Cl)c1.[Cl-]`, the kinetic solubility is over 47.6 µg/mL. Next, `CN(CC(=O)OCC(=O)NC1CCCC1)S(=O)(=O)c1ccc(Cl)cc1`: over 58.3 µg/mL. The compound `COc1ccc(CN=C(C#N)C2=C(O)c3ccccc3C2=O)cc1` registered a solubility (kinetic) of 0.8 µg/mL (≈ 2.51 µM). Next, `O=C(COC(=O)CNC(=O)C1CCCCC1)NCc1ccccc1`: over 49.9 µg/mL; `O=C(NCc1ccco1)C1CCCN1C(=O)Nc1ccccc1` (centres undefined): 43.5 µg/mL (≈ 139 µM); `CCCCOc1ccc(CSCCN)cc1Cl.Cl`: over 46.5 µg/mL. Take `O=C(CCNC(=O)c1ccco1)Nc1ccc(OC(F)F)cc1`: the solubility (kinetic) stood at 43.6 µg/mL (≈ 134 µM). `COc1ccc(C)cc1S(=O)(=O)Nc1ccc2c(c1)OCCO2` gave a solubility (kinetic) of 4.1 µg/mL (≈ 12.2 µM). Against the preceding compound, the solubility kinetic is about 11-fold lower. In turn, `Cc1cccc2c1NC(=O)C21OCC(CO)([N+](=O)[O-])CO1` (centres undefined) yielded a solubility (kinetic) of 24.8 µg/mL (≈ 84.3 µM). This solubility kinetic is about 6-fold higher than that of the compound before.

Turning to `CCOc1cc(C(=O)N=c2sccn2C)ccc1OC(F)F`, the solubility (kinetic) was 45.4 µg/mL (≈ 138 µM). Compound `O=C(NCc1ccccn1)Nc1cc(Cl)cc(Cl)c1` showed a kinetic solubility of 40.8 µg/mL (≈ 138 µM). The solubility kinetic values of the last two compounds are within 1.5-fold of each other.

Consider `CC1CCN(c2nc3c(cc2C#N)COC(C)(C)C3)CC1`, for which the kinetic solubility was determined as 16 µg/mL (≈ 56.1 µM). This solubility kinetic lies about 2.5-fold lower than the previous one.

Consider `CC(C)OC(=O)/C(=C\c1ccccc1)NC(=O)c1ccccc1`, for which the kinetic solubility was over 46.4 µg/mL. With `CCOc1cc(N2CCOCC2)c(OCC)cc1NC(=O)Cn1cnnn1`, the solubility (kinetic) is over 56.5 µg/mL. For `O=C(NCC1CCCCC1)c1ccc(Cl)nc1`, the solubility (kinetic) is over 37.9 µg/mL. `COc1ccc(NC(=S)NC(=O)Cc2ccccc2)c(OC)c1` came in with a kinetic solubility of 1.7 µg/mL (≈ 5.15 µM). `C=CCn1c(O)c(C(CC)=NCc2ccco2)c(=O)[nH]c1=O` displayed a solubility (kinetic) of over 45.5 µg/mL. `CCc1ccnc(NS(=O)(=O)c2ccc3c(c2)OCCO3)c1` had a solubility (kinetic) of 7.2 µg/mL (≈ 22.5 µM). The compound `Cc1ccc(S(=O)(=O)N2CCOCC2)cc1C(=O)N1CCN(c2ccc(C(F)(F)F)cn2)CC1` registered a solubility (kinetic) of 68.8 µg/mL (≈ 138 µM). In turn, `Cc1ccc(OCCNC(=O)c2cc(=O)[nH]c3ccccc23)cc1` registered a kinetic solubility of 2 µg/mL (≈ 6.2 µM). For `CCCCCCc1c(O)nc(SCCN(C)C)[nH]c1=O`, the solubility (kinetic) amounted to 32.8 µg/mL (≈ 110 µM). To `N=c1oc2ccccc2cc1C(=O)NC1CCCCCC1` belongs 15.9 µg/mL (≈ 55.9 µM); to `Cn1c(N)c(C(=O)COC(=O)Cc2cccs2)c(=O)n(C)c1=O`, over 50.6 µg/mL; to `CCC1C(C#N)=C(N)Oc2c1c(=O)oc1ccccc21` (centres undefined), 8.6 µg/mL (≈ 32.1 µM). In turn, `Cl.Clc1ccccc1CNCc1ccncc1` showed a kinetic solubility of 38.9 µg/mL. On to `CCOC(=O)Cc1csc(NC(=O)c2c(C)noc2C)n1`, for which the solubility (kinetic) was over 46.4 µg/mL. `O=C(NC1CCC(O)CC1)c1cc(Cl)c2c(c1)OCCO2` (centres undefined): the solubility (kinetic) came to 35.6 µg/mL (≈ 114 µM). `COC(=O)C(Cc1ccc(O)cc1)NC(=O)CCNC(=O)c1ccco1` (centres undefined) returned a solubility (kinetic) of over 54.1 µg/mL. With `O=C(/C=C/Nc1nccs1)C(F)(F)Cl`, the kinetic solubility was 33.6 µg/mL (≈ 141 µM). Consider `N#Cc1nc(-c2ccc([N+](=O)[O-])cc2)oc1N1CCCCC1`, for which the kinetic solubility worked out at 1.3 µg/mL (≈ 4.36 µM). `CCOC(=O)N1CCN(C(=S)NC(=O)C2CCCC2)CC1`: the kinetic solubility is over 47 µg/mL.

As for `CC1(C)Cc2ccccc2-c2[nH]c(=S)[nH]c(=O)c21`, the solubility (kinetic) amounted to 30.1 µg/mL (≈ 117 µM). Next, `O=C(/C=C/c1ccc(Cl)cc1)NC1CCS(=O)(=O)C1` (centres undefined): over 45 µg/mL; `O=C(COC(=O)c1cc(S(=O)(=O)N2CCOCC2)ccc1O)Nc1ccc2c(c1)OCO2`: over 69.7 µg/mL; `CC(=O)N/C(=C\c1ccccc1)C(=O)OCc1ccc(F)cc1`: 43.4 µg/mL (≈ 139 µM). The compound `COc1cccc(/C=C(\CC(=O)O)c2nc3ccccc3s2)c1` showed a kinetic solubility of 41.1 µg/mL (≈ 126 µM). To `COc1ccccc1/C=C/C(=O)NCCc1ccccn1` belongs 41.9 µg/mL (≈ 148 µM); to `COc1ccccc1N1CCN(CC(O)c2c(C)[nH]c3ccccc23)CC1` (centres undefined), over 54.8 µg/mL. `Cn1c(N)c(C(=O)COC(=O)c2ccc(Cl)nc2)c(=O)n(C)c1=O` returned a kinetic solubility of 46.2 µg/mL (≈ 131 µM). On to `CN(O)/C=N/C(=S)Nc1ccc(Cl)cc1Cl`, for which the kinetic solubility is 38.4 µg/mL (≈ 138 µM). Turning to `Cc1sc2ncnc(N3CCC(C(=O)Nc4ccc(OC(F)F)c(Cl)c4)CC3)c2c1C`, the solubility (kinetic) amounted to 5.7 µg/mL (≈ 12.2 µM). As for `O=C(CCc1ccncc1)N1CCCC(Nc2ccc(F)c(F)c2)C1` (centres undefined), the kinetic solubility was 43.9 µg/mL (≈ 127 µM). For `O=C1CC(C(=O)Nc2cccc(F)c2)n2c(nc3ccccc32)N1` (centres undefined), the solubility (kinetic) was found to be 0.9 µg/mL (≈ 2.78 µM).

`Cc1ccccc1CC1SC(N)=NC1=O` (centres undefined) displayed a solubility (kinetic) of 21.8 µg/mL (≈ 99 µM). In turn, `O=C1N/C(=N\c2ccccn2)SC1Cc1ccc(Cl)cc1` (centres undefined) gave a kinetic solubility of under 0.2 µg/mL.

In turn, `COc1ccc(CNC(=O)COC(=O)[C@H](Cc2ccccc2)NC(=O)c2cccs2)cc1` came in with a kinetic solubility of 51 µg/mL (≈ 113 µM).

Take `O=C(NC1CCS(=O)(=O)C1)c1cccc(Br)c1` (centres undefined): the solubility (kinetic) was over 47.7 µg/mL. Compound `Cn1ccnc1SCC(=O)NC1CCCC1` returned a solubility (kinetic) of 28.8 µg/mL (≈ 120 µM).

Consider `O=C(NCc1ccco1)C1CC(O)CN1C(=O)Nc1ccccc1` (centres undefined), for which the solubility (kinetic) was over 49.4 µg/mL. In the case of `CC(CN1CCCC1)OC(=O)c1ccc(F)cc1.Cl` (centres undefined), the kinetic solubility is over 43.2 µg/mL.

`Cc1cccc(C(=O)Nc2ccc(C(=O)c3ccccc3)cc2)c1` registered a kinetic solubility of under 0.7 µg/mL.

Usually solubility (kinetic) stands for solubility judged after dilution from a stock solution rather than from solid.
